Test results taken from patent US6878388B1, “Vanadium compounds for treating proliferative cell disorders” (Parker Hughes Institute, priority 2000, dated 2005).

Key:
[1] = tested on: MCF-7 breast cancer cells; experiment: MTT cytotoxicity assay, MCF-7; format: cell-based, human; details: MCF-7 cells, 48 h incubation, 3 independent experiments, read-out: IC50 (mean ± SE)
Method: (§1) Human brain tumor cells lines U87 MG (Cat.# HTB-14), U118 MG (Cat. # HTB-15), U138 (Cat # HTB-16), U373 MG (CAT. # HTB-17), and T98G (Cat. # CRL-1690) and breast cancer cell lines BT-20 (Cat # HTB-19), MDA-MB-231 (Cat # HTB-26), MDA-MB-361 (Cat # HTB-27), and MCF-7 (Cat # HTB-22) were obtained from American Type Culture Collection (ATCC, Rockville, Md.) and maintained as continuous cell lines in Dulbecco's modified Eagles's medium (U87, U118, U138, U373, T98 and BT-20) or Leibovitz's L-15 medium (MDA-MB-231 and MDA-MB-361). All media were supplemented with 10% fetal calf serum (FCS), 4 mM glutamine, 100 U/ml penicillin G and […] streptomycin sulfate. All tissue culture reagents were obtained from Life Technologies Inc. (GIBCO-BRL, Gaithersburg, Md.).
(§2) The cytotoxicity of [VO(SO4)(Me2-Phen)2] against human cancer cell lines was analyzed using the MTT (3-[4,5-dimethylthiazol-2-yl]-2,5-diphenyl tetrazolium bromide) assay (Boehringer Mannheim Corp., Indianapolis, Ind.) as described previously (Narla et al., Clin Cancer Res., 4: 1405-1414, 1998). […] The absorbance at 540 nm (a reference wavelength of 690 nm was used) of the solution in each well was measured using a microplate reader (Labsystems). The percent survival and the IC50 values were calculated using Graphpad Prism v2.0 (Graphpad Software, Inc., San Diego, Calif.) as described previously (Narla et al., Supra). […]

U87 glioblastoma cells = experiment: In situ detection of apoptosis (TdT-mediated dUTP nick-end labeling), U87; format: cell-based, human; details: dUTP-FITC labeling, read-out: apoptotic EC50
Method: Apoptosis was detected using an in situ cell death detection kit (Boehringer Mannheim Corp., Indianapolis, Ind.) as described previously (Albini et al., J. Cell Biol., 105: 1867-1872, 1987; Huang et al., J Biol Chem., 272: 2927-2935, 1997). Cells were incubated with [VO(SO4)(Me2-Phen)2] for 48 hours at 37° C., fixed, permeabilized, incubated with the reaction mixture containing terminal deoxynucleotidyl transferase (TdT) and fluorescein isothiocyanate (FITC)-conjugated dUTP and counterstained with propidium iodide. Cells were transferred to slides and viewed with confocal laser scanning microscope (Bio-Rad MRC 1024) mounted on a Nikon Eclipse E800 series upright microscope as previously reported (Narla et al., Supra).
Administration of [VO(SO4)(Me2-Phen)2] to cells induced apoptotic or programmed cell death as determined using the TdT-mediated dUTP nick-end labeling of exposed 3′-OH termini of DNA with dUTP-FITC.

[2] = tested on: U373 human glioblastoma cells; experiment: MTT cytotoxicity assay, U373; format: cell-based; details: 48 h incubation, 3 independent experiments, read-out: IC50 (mean ± SE)
Method: as §1, §2

[3] = tested on: MDA-MB-361 breast cancer cells; experiment: MTT cytotoxicity assay, MDA-MB-361; format: cell-based, human; details: MDA-MB-361 cells, 48 h incubation, 3 independent experiments, read-out: IC50 (mean ± SE)
Method: as §1, §2

[4] = tested on: U373 glioblastoma cell spheroids; experiment: Spheroid migration assay; format: cell-based, human; details: for inhibition of tumor cell migration from the spheroids / migration distance: U373 spheroids; for migration distance: 48 h (DMSO control 745±29 μm)
Method: Dissociation and migration are the initial steps for infiltration of tumor cells into the surrounding tissue (Pilkington et al., Anticancer Res., 17: 4107-4109, 1997; Giese et al., Neurosurgery, 39: 235-252, 1996; Chintala et al., Front Biosci, 1: d324-39, 1996). Migration of brain tumor cells was monitored using U373 glioblastoma cell spheroids, as described previously (Narla et al., Clin Cancer Res, 4:2463-2471, 1998). Glioblastoma cell spheroids were cultured in 100 mm^2 tissue culture plates precoated with 0.75% agar prepared in MEM supplemented with 10% fetal bovine serum. The cells (5×10^6 cells) were suspended in the medium, seeded onto agar-coated plates and cultured for 5-7 days at 37° C. Spheroids with a diameter of 200-400 μm were selected for use in further experiments. For the migration experiments, the selected spheroids were incubated for 2 hours at 37° C. in serum-free medium containing [VO(SO4)(Me2-Phen)2] in concentrations ranging from 1 μM to 25 μM. The [VO(SO4)(Me2-Phen)2]-treated and vehicle control (DMSO, 0.1%) spheroids were transferred onto fibronectin-coated coverslips (Becton Dickinson, Bedford, Mass.) and placed in 6-well plates containing the same concentrations of [VO(SO4)(Me2-Phen)2] or DMSO in serum-free medium. Spheroids were then kept in a humidified 5CO2 incubator at 37° C. for 48 hours. A total of 4-6 spheroids were used for each concentration. Following the 48 hours incubation period, the spheroids were fixed and stained with Hema-3 solutions and mounted onto glass slides. The distance of tumor cell migration from the spheroid was measured using an ocular micrometer and a transmitted light microscope.
Spheroids measuring 259.2±41.9 μm in diameter were incubated with [VO(SO4)(Me2-Phen)2] or DMSO on fibronectin-coated coverslips. The U373 gioblastoma cells incubated with DMSO rapidly migrated to a distance 745±29 μm away from the spheroid.

[5] = tested on: MDA-MB-231 breast cancer cells; experiment: MTT cytotoxicity assay, MDA-MB-231; format: cell-based, human; details: MDA-MB-231 cells, 48 h incubation, 3 independent experiments, read-out: IC50 (mean ± SE)
Method: as §1, §2

Cc1ccnc2c1ccc1c(C)ccnc12.Cc1ccnc2c1ccc1c(C)ccnc12.O=S(=O)([O-])[O-].[O]=[V+2] [[VO(SO4)(Me2-Phen)2], bis(4,7-dimethyl-1,10-phenanthroline) sulfatooxovanadium (IV)]
IC50 [1]: 2300 ± 400 nM
EC50 (U87 glioblastoma cells): 4200 ± 900 nM
IC50 [2]: 2000 ± 400 nM
IC50 [3]: 1900 ± 500 nM
inhibition of tumor cell migration from the spheroids ([4]; 1 μM, 48 h): 58.3±7.3%
migration distance ([4]; 1 μM): 311.1±54.4 μm
inhibition of tumor cell migration from the spheroids ([4]; 2 μM, 48 h): 71.2±3.4%
migration distance ([4]; 2 μM): 214.9±25.7 μm
IC50 ([4]; U373 spheroids on fibronectin-coated coverslips, 48 h, read-out: IC50 inhibition of tumor cell migration): 1400 ± 200 nM
IC50 [5]: 500 ± 100 nM
